Laboratory results from ChEMBL document CHEMBL5365481, “Design, Synthesis, and Activity Evaluation of Novel Dual-Target Inhibitors with Antifungal and Immunoregulatory Properties” (J Med Chem, 2023).
In brackets after ≈: the same amount, converted by molar mass. Activity calls are given as the source filed them. The calls are words filed in the database; no cut-off is given here.

Experiments:
Candida albicans [1] = assay: In vivo antifungal activity against Candida albicans ATCC SC5314 infected in BALB/c mouse assessed as decrease in COX2 expression level at 10 ug, ip for 14 days by Western blot analysis; format: functional, organism-based; conditions: dose 10.0 µg, time 14.0 day
Candida albicans [2] = assay: Antifungal activity against Candida albicans ATCC SC5314 assessed as change in structural stability at 1 microM/ml incubated for 48 hrs by absorbance based assay; format: functional, organism-based
Candida albicans [3] = assay: Antifungal activity against fluconazole-resistant Candida albicans 904 assessed as inhibition of fungal growth incubated for 72 hrs by CLSI based liquid medium microdilution method; format: functional
Candida albicans [4] = assay: Antifungal activity against Candida albicans ATCC SC5314 assessed as inhibition of fungal growth incubated for 72 hrs by CLSI based liquid medium microdilution method; format: functional
Candida albicans [5] = assay: Induction of apoptosis in Candida albicans ATCC SC5314 assessed as late apoptotic cells at 1 microM/ml incubated for 48 hrs by Hoechst 33258/PI staining based flow cytometry (Rvb= 0.05 +/- 0.01%); format: functional
Candida albicans [6] = assay: In vivo antifungal activity against Candida albicans ATCC SC5314 infected in BALB/c mouse assessed as decrease in NLRP3 expression level at 10 ug, ip for 14 days by Western blot analysis; format: functional, organism-based; conditions: dose 10.0 µg, time 14.0 day
Candida albicans [7] = assay: Induction of mitochondrial membrane depolarization in Candida albicans ATCC SC5314 assessed as normal cells at 1 microM/ml incubated for 24 hrs by JC-1 staining based flow cytometry assay (reference value: 94.4 +/- 1.15%); format: functional
Candida albicans [8] = assay: In vivo antifungal activity against Candida albicans ATCC SC5314 infected in BALB/c mouse assessed as increase in body weight at 10 ug, ip for 14 days; format: functional, organism-based; conditions: dose 10.0 µg, time 14.0 day
Candida albicans [9] = assay: Induction of ROS generation in Candida albicans ATCC SC5314 assessed as increase in fluorescence intensity at 1 microM/ml incubated for 48 hrs by fluorescent microscopy; format: functional, organism-based
Candida albicans [10] = assay: In vivo antifungal activity against Candida albicans ATCC SC5314 infected in BALB/c mouse assessed as decrease in necrotic cell debris in tissue gap at 10 ug, ip for 14 days by GMS staining based microscopy; format: functional, organism-based; conditions: dose 10.0 µg, time 14.0 day
[11] = target: T1, Lanosterol 14-alpha demethylase (Candida albicans (strain SC5314 / ATCC MYA-2876) (Yeast), UniProt P10613); assay: Inhibition of Candida albicans ATCC SC5314 CYP51 assessed as other unknown sterol content at 4 ug/ml measured after 16 hrs by GC-MS analysis (Rvb= 3.82%); parameters: scale not given: the % may be the effect or the level left; conditions: at 4 µg/mL
Candida albicans [12] = assay: Antifungal activity against fluconazole-resistant Candida albicans CaR assessed as inhibition of fungal growth incubated for 72 hrs by CLSI based liquid medium microdilution method; format: functional
[13] = target: T1, Lanosterol 14-alpha demethylase; assay: Inhibition of Candida albicans ATCC SC5314 CYP51 using lanosterol as substrate incubated for 30 mins by HPLC assay
Candida albicans [14] = assay: Antifungal activity against fluconazole-resistant Candida albicans 632 assessed as inhibition of fungal growth incubated for 72 hrs by CLSI based liquid medium microdilution method; format: functional
[15] = Toxicity in BALB/c mouse infected with Candida albicans ATCC SC5314 assessed as plasma ALT level at 10 ug, ip for 14 days; format: organism-based; conditions: in vivo, 336 h, dose 10 µg, time 14 day
[16] = Toxicity in BALB/c mouse infected with Candida albicans ATCC SC5314 assessed as plasma AST level at 10 ug, ip for 14 days; format: organism-based; conditions: in vivo, 336 h, dose 10 µg, time 14 day
[17] = target: T1, Lanosterol 14-alpha demethylase; assay: Inhibition of Candida albicans ATCC SC5314 CYP51 assessed as lanosterol content at 4 ug/ml measured after 16 hrs by GC-MS analysis relative to control; parameters: scale not given: the % may be the effect or the level left; conditions: at 4 µg/mL
Candida albicans [18] = assay: Induction of apoptosis in Candida albicans ATCC SC5314 assessed as early apoptotic cells at 1 microM/ml incubated for 48 hrs by Hoechst 33258/PI staining based flow cytometry (Rvb= 5.1 +/- 0.3%); format: functional
Candida albicans [19] = assay: In vivo antifungal activity against Candida albicans ATCC SC5314 infected in BALB/c mouse assessed as decrease in number of exogenous fungal cells at 10 ug, ip for 14 days by H and E staining based microscopy; format: functional, organism-based; conditions: dose 10.0 µg, time 14.0 day
Candida albicans [20] = assay: Antifungal activity against Candida albicans ATCC SC5314 assessed as change in osmotic pressure at 1 microM/ml incubated for 48 hrs by absorbance based assay; format: functional, organism-based
Candida albicans [21] = assay: Induction of mitochondrial membrane depolarization in Candida albicans ATCC SC5314 assessed as polarized cells at 1 microM/ml incubated for 24 hrs by JC-1 staining based flow cytometry assay (reference value: 0.28 +/- 0.02%); format: functional
Aspergillus fumigatus = assay: Antifungal activity against Aspergillus fumigatus KM8001 assessed as inhibition of fungal growth incubated for 72 hrs by CLSI based liquid medium microdilution method; format: functional
Candida albicans [22] = assay: Antifungal activity against fluconazole-resistant Candida albicans 901 assessed as inhibition of fungal growth incubated for 72 hrs by CLSI based liquid medium microdilution method; format: functional
[23] = Toxicity in BALB/c mouse infected with Candida albicans ATCC SC5314 assessed as morphological changes in spleen at 10 ug, ip for 14 days by H and E staining based microscopy; format: organism-based; conditions: in vivo, 336 h, dose 10 µg, time 14 day
Candida albicans [24] = assay: In vivo antifungal activity against Candida albicans ATCC SC5314 infected in BALB/c mouse assessed as decrease in IFN-gamma expression level at 10 ug, ip for 14 days by immunohistochemical analysis; format: functional, organism-based; conditions: dose 10.0 µg, time 14.0 day
[25] = Toxicity in BALB/c mouse infected with Candida albicans ATCC SC5314 assessed as morphological changes in kidney at 10 ug, ip for 14 days by H and E staining based microscopy; format: organism-based; conditions: in vivo, 336 h, dose 10 µg, time 14 day
Candida albicans [26] = assay: In vivo antifungal activity against Candida albicans ATCC SC5314 infected in BALB/c mouse assessed as disappearance of nuclei aggregation at 10 ug, ip for 14 days by GMS staining based microscopy; format: functional, organism-based; conditions: dose 10.0 µg, time 14.0 day
[27] = target: T1, Lanosterol 14-alpha demethylase; assay: Inhibition of Candida albicans ATCC SC5314 CYP51 assessed as eburicol content at 4 ug/ml measured after 16 hrs by GC-MS analysis (Rvb= 3.47%); parameters: scale not given: the % may be the effect or the level left; conditions: at 4 µg/mL
[28] = Toxicity in BALB/c mouse infected with Candida albicans ATCC SC5314 assessed as morphological changes in liver at 10 ug, ip for 14 days by H and E staining based microscopy; format: organism-based; conditions: in vivo, 336 h, dose 10 µg, time 14 day
[29] = target: T1, Lanosterol 14-alpha demethylase; assay: Inhibition of Candida albicans ATCC SC5314 CYP51 assessed as ergosterol content at 4 ug/ml measured after 16 hrs by GC-MS analysis (reference value: 92.71%); parameters: scale not given: the % may be the effect or the level left; conditions: at 4 µg/mL
[30] = Toxicity in BALB/c mouse infected with Candida albicans ATCC SC5314 assessed as morphological changes in heart at 10 ug, ip for 14 days by H and E staining based microscopy; format: organism-based; conditions: in vivo, 336 h, dose 10 µg, time 14 day
Candida albicans [31] = assay: In vivo antifungal activity against Candida albicans ATCC SC5314 infected in BALB/c mouse assessed as decrease in COX2 expression level at 10 ug, ip for 14 days by immunohistochemical analysis; format: functional, organism-based; conditions: dose 10.0 µg, time 14.0 day
Candida tropicalis = assay: Antifungal activity against Candida tropicalis ATCC 1369 assessed as inhibition of fungal growth incubated for 72 hrs by CLSI based liquid medium microdilution method; format: functional
[32] = Toxicity in BALB/c mouse infected with Candida albicans ATCC SC5314 assessed as morphological changes in lung at 10 ug, ip for 14 days by H and E staining based microscopy; format: organism-based; conditions: in vivo, 336 h, dose 10 µg, time 14 day

T1 sequence (P10613 whole entry): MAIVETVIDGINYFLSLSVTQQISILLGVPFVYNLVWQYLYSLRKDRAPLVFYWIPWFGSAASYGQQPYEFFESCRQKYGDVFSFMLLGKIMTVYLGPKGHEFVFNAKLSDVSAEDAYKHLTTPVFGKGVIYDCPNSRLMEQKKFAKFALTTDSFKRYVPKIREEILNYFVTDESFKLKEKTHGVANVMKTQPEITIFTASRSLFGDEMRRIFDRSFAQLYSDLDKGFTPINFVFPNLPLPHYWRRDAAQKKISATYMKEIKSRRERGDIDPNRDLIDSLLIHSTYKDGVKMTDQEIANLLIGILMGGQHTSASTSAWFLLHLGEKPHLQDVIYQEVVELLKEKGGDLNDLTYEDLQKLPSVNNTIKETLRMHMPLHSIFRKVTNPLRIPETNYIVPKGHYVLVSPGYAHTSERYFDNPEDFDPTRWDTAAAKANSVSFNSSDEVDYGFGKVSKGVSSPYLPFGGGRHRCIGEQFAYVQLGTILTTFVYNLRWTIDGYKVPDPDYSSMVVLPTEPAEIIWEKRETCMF

SMILES | Activity (Candida albicans [1]) | Activity (Candida albicans [2]) | MIC50 (Candida albicans [3]) [µg/mL] | MIC50 (Candida albicans [4]) [µg/mL] | Activity (Candida albicans [5]) [%] | Activity (Candida albicans [6]) | Activity (Candida albicans [7]) [%] | Activity (Candida albicans [8]) | Activity (Candida albicans [9]) | Activity (Candida albicans [10]) | Activity [11] [%] | MIC50 (Candida albicans [12]) [µg/mL] | IC50 [13] [µM] | MIC50 (Candida albicans [14]) [µg/mL] | Activity [15] [IU/L] | Activity [16] [IU/L] | Activity [17] [%] | Activity (Candida albicans [18]) [%] | Activity (Candida albicans [19]) | Activity (Candida albicans [20]) | also measured
OC(Cn1cncn1)(Cn1cncn1)c1ccc(F)cc1F [FLUCONAZOLE] | Active | Active | > 8 | 0.5 (≈ 1.63 µM) | 0.07 | Active | 65.4 | Active | Active | Active | 5.58 | > 8 | 0.159 | > 8 | 41.9 | 79.7 | 30.06 | 55.3 | Active | Active | Activity (Candida albicans [21]): 0.39%; MIC50 (Aspergillus fumigatus): > 8 µg/mL; MIC50 (Candida albicans [22]): > 8 µg/mL; Activity [23]: Non-Toxic; Activity (Candida albicans [24]): Active; Activity [25]: Non-Toxic; Activity (Candida albicans [26]): Active; Activity [27]: 46.52%; Activity [28]: Non-Toxic; Activity [29]: 17.84%; Activity [30]: Non-Toxic; Activity (Candida albicans [31]): Active; MIC50 (Candida tropicalis): 0.5 µg/mL (≈ 1.63 µM); Activity [32]: Non-Toxic
CC(=O)c1ccc(C(=O)N2CCC(NC(=O)c3nc(-n4cncn4)c4ccccc4n3)CC2)cc1 | Active | Active | 2 (≈ 4.26 µM) | 0.25 (≈ 0.532 µM) | 0.07 | Active | 42.6 | Active | Active | Active | 5.74 | 2 (≈ 4.26 µM) | 0.263 | 1 (≈ 2.13 µM) | 32.3 | 54.9 | 32.47 | 57.9 | Active | Active | Activity (Candida albicans [21]): 0.62%; MIC50 (Aspergillus fumigatus): 1 µg/mL (≈ 2.13 µM); MIC50 (Candida albicans [22]): 4 µg/mL (≈ 8.52 µM); Activity [23]: Non-Toxic; Activity (Candida albicans [24]): Active; Activity [25]: Non-Toxic; Activity (Candida albicans [26]): Active; Activity [27]: 43.15%; Activity [28]: Non-Toxic; Activity [29]: 18.64%; Activity [30]: Non-Toxic; Activity (Candida albicans [31]): Active; MIC50 (Candida tropicalis): 0.25 µg/mL (≈ 0.532 µM); Activity [32]: Non-Toxic
CC(C)c1ccc(C(=O)N2CCC(NC(=O)c3nc(-n4ccnc4)c4ccccc4n3)CC2)cc1 | Active | Active | > 8 | 0.25 (≈ 0.534 µM) | 0.19 | Active | 52.3 | Active | Active | Active | 5.58 | 4 (≈ 8.54 µM) | 0.205 | 1 (≈ 2.13 µM) | 30.5 | 66.8 | 29.53 | 54.5 | Active | Active | Activity (Candida albicans [21]): 0.1%; MIC50 (Aspergillus fumigatus): 2 µg/mL (≈ 4.27 µM); MIC50 (Candida albicans [22]): 4 µg/mL (≈ 8.54 µM); Activity [23]: Non-Toxic; Activity (Candida albicans [24]): Active; Activity [25]: Non-Toxic; Activity (Candida albicans [26]): Active; Activity [27]: 45.04%; Activity [28]: Non-Toxic; Activity [29]: 20.92%; Activity [30]: Non-Toxic; Activity (Candida albicans [31]): Active; MIC50 (Candida tropicalis): 0.25 µg/mL (≈ 0.534 µM); Activity [32]: Non-Toxic
